Data reported in the supplement of paper PMC10307832.

Key:
Assay in all cases: relative viability (nuclei count vs DMSO), 5 days (fraction); higher = more cells survive
Carfilzomib + Navitoclax = compound: CC(C)C[C@H](NC(=O)[C@H](CCc1ccccc1)NC(=O)CN1CCOCC1)C(=O)N[C@@H](Cc1ccccc1)C(=O)N[C@@H](CC(C)C)C(=O)[C@@]1(C)CO1 [Carfilzomib] + CC1(C)CCC(c2ccc(Cl)cc2)=C(CN2CCN(c3ccc(C(=O)NS(=O)(=O)c4ccc(N[C@H](CCN5CCOCC5)CSc5ccccc5)c(S(=O)(=O)C(F)(F)F)c4)cc3)CC2)C1 [Navitoclax] (partner 0.5 µM)
Method in brief: (§1)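 Relative viability equals treated-well nuclei counts divided by vehicle-well nuclei counts. Counts came from 4× images of lung cancer cell lines grown in 1536-well plates for 5 days after pin-tool dosing on the day after seeding. Dosing used one drug alone or a fixed anchor-drug dose plus five library-drug doses (not always all listed) in √10 steps, and values are medians of duplicate plates.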

Olaparib + Dasatinib = compound: O=C(c1cc(Cc2n[nH]c(=O)c3ccccc23)ccc1F)N1CCN(C(=O)C2CC2)CC1 [Olaparib] + Cc1nc(Nc2ncc(C(=O)Nc3c(C)cccc3Cl)s2)cc(N2CCN(CCO)CC2)n1 [Dasatinib] (partner 0.075 µM)
Method in brief: as §1

Carfilzomib + Linsitinib = compound: CC(C)C[C@H](NC(=O)[C@H](CCc1ccccc1)NC(=O)CN1CCOCC1)C(=O)N[C@@H](Cc1ccccc1)C(=O)N[C@@H](CC(C)C)C(=O)[C@@]1(C)CO1 [Carfilzomib] + C[C@]1(O)C[C@@H](c2nc(-c3ccc4ccc(-c5ccccc5)nc4c3)c3c(N)nccn32)C1 [Linsitinib] (partner 1 µM)
Method in brief: as §1

Olaparib + OSI-027 = compound: O=C(c1cc(Cc2n[nH]c(=O)c3ccccc23)ccc1F)N1CCN(C(=O)C2CC2)CC1 [Olaparib] + COc1cccc2cc(-c3nc([C@H]4CC[C@H](C(=O)O)CC4)n4ncnc(N)c34)[nH]c12 [OSI-027] (partner 0.5 µM)
Method in brief: as §1

| Cell Line | relative viability (Carfilzomib + Navitoclax; first compound 0.001 µM) | relative viability (Carfilzomib + Navitoclax; first compound 0.003162 µM) | relative viability (Carfilzomib + Navitoclax; first compound 0.01 µM) | relative viability (Carfilzomib + Navitoclax; first compound 0.03162 µM) | relative viability (Carfilzomib + Navitoclax; first compound 0.1 µM) | relative viability (Olaparib + Dasatinib; first compound 0.08 µM) | relative viability (Olaparib + Dasatinib; first compound 0.253 µM) | relative viability (Olaparib + Dasatinib; first compound 2.53 µM) | relative viability (Olaparib + Dasatinib; first compound 8 µM) | relative viability (Carfilzomib + Linsitinib; first compound 0.001 µM) | relative viability (Carfilzomib + Linsitinib; first compound 0.003162 µM) | relative viability (Carfilzomib + Linsitinib; first compound 0.01 µM) | relative viability (Carfilzomib + Linsitinib; first compound 0.03162 µM) | relative viability (Carfilzomib + Linsitinib; first compound 0.1 µM) | relative viability (Olaparib + OSI-027; first compound 0.08 µM) | relative viability (Olaparib + OSI-027; first compound 0.253 µM) | relative viability (Olaparib + OSI-027; first compound 2.53 µM) | relative viability (Olaparib + OSI-027; first compound 8 µM) |
| --- | --- | --- | --- | --- | --- | --- | --- | --- | --- | --- | --- | --- | --- | --- | --- | --- | --- | --- |
| 201T | 1.14 | 1.23 | 1.22 | 1.23 | 1.18 | 0.576 | 0.558 | 0.46 | 0.501 | 0.992 | 1.07 | 1.1 | 1.09 | 1.02 | 0.724 | 0.611 | 0.699 | 0.764 |
| A549 | 1.17 | 1.21 | 1.24 | 0.0372 | 0.0397 | – | – | – | – | 0.478 | 0.756 | 0.546 | 0.231 | 0.0396 | – | – | – | – |
| A-427 | 0.954 | 1.01 | 1.04 | 0.644 | 0.113 | 0.793 | 0.691 | 0.586 | 0.54 | 1.12 | 1.11 | 1.11 | 1.01 | 0.119 | 0.558 | 0.469 | 0.396 | 0.389 |
| ABC-1 | – | – | – | – | – | 0.639 | 0.609 | 0.586 | 0.676 | 0.837 | 0.665 | 0.527 | 0.235 | 0.242 | 0.801 | 0.52 | 0.488 | 0.55 |
| BEN | 0.0574 | 0.0653 | 0.0797 | 0.0533 | 0.047 | – | 0.32 | 0.325 | 0.35 | 0.968 | 1.21 | 0.965 | 0.865 | 0.392 | – | 0.268 | 0.301 | 0.296 |
| CAL-12T | – | 0.996 | 1.22 | 0.822 | 0.104 | 0.597 | 0.281 | 0.363 | 0.283 | 0.836 | 0.923 | 0.876 | 0.57 | 0.112 | 1.05 | 0.568 | 0.602 | 0.627 |
| COR-L23 | 1.1 | 1.14 | 0.724 | 0.0667 | 0.0704 | 0.539 | 0.437 | 0.314 | 0.23 | 0.939 | 1.05 | 0.867 | 0.0469 | 0.0604 | 0.723 | 0.635 | 0.712 | 0.424 |
| COR-L 105 | 0.885 | 0.628 | 0.643 | 0.353 | 0.298 | 0.34 | 0.403 | 0.356 | 0.288 | 0.937 | 1.05 | 0.879 | 0.297 | 0.249 | 0.77 | 0.679 | 0.487 | 0.584 |
| Calu-6 | 0.885 | 0.997 | 0.561 | 0.0829 | 0.0768 | – | – | – | – | 0.941 | 1.15 | 0.934 | 0.202 | 0.08 | – | – | – | – |
| ChaGo-K-1 | – | 1.58 | 1.01 | 0.693 | 0.385 | 0.576 | 0.577 | 0.567 | 0.445 | – | – | – | – | – | 0.649 | 0.506 | 0.533 | 0.464 |
| EBC-1 | 0.415 | 0.288 | 0.184 | 0.13 | 0.139 | – | – | – | – | 0.87 | 0.989 | 0.735 | 0.0736 | 0.0886 | – | – | – | – |
| EKVX | 0.992 | 1 | 1.21 | 0.427 | 0.346 | 0.271 | 0.406 | 0.428 | 0.599 | 0.927 | 1.2 | 1.08 | 1.01 | 0.33 | 0.79 | 0.626 | 0.61 | 0.765 |
| EMC-BAC-2 | 1.15 | 1.21 | 1.22 | 1.12 | 0.527 | 0.365 | 0.382 | 0.471 | 0.338 | 0.78 | 0.786 | 0.844 | 0.836 | 0.401 | 0.41 | 0.364 | 0.357 | 0.358 |
| EPLC-272H | 1.07 | 1.15 | 0.839 | 0.09 | 0.0751 | 0.43 | 0.293 | 0.414 | 0.338 | 1.04 | 1.32 | 1.16 | 0.193 | 0.0783 | 0.334 | 0.286 | 0.31 | 0.299 |
| H3255 | 0.676 | 0.63 | 0.663 | 0.37 | 0.151 | 0.401 | 0.274 | 0.491 | 0.425 | 0.942 | 1.06 | 0.995 | 0.739 | 0.373 | 0.591 | 0.56 | 0.764 | 0.548 |
| HARA | 1.1 | 1.14 | 1.21 | 0.0941 | 0.0841 | 0.36 | 0.286 | 0.255 | 0.237 | 0.89 | 1.03 | 1.07 | 0.0722 | 0.0537 | 0.68 | 0.446 | 0.47 | 0.438 |
| HCC-15 | 0.667 | 0.728 | 0.762 | 0.423 | 0.148 | 0.659 | 0.584 | 0.655 | 0.631 | 0.847 | 0.958 | 0.937 | 0.765 | 0.168 | 0.83 | 0.652 | 0.6 | 0.638 |
| HCC-44 | 0.94 | 1.01 | 1 | 0.829 | 0.261 | – | – | – | – | 0.592 | 0.75 | 0.673 | 0.487 | 0.174 | 0.55 | 0.424 | 0.434 | 0.565 |
| HCC-78 | 0.546 | 0.925 | 0.748 | 0.503 | 0.179 | 0.451 | 0.31 | 0.426 | 0.331 | 0.554 | 0.585 | 0.545 | 0.385 | 0.214 | 0.373 | 0.379 | 0.349 | 0.332 |
